“And” between values parts separate entries of the source, which are not always exact repeats. Equal values may be shown once.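 Interpolation was linear, between the two tested concentrations surrounding the appropriate level; five concentrations were tested over 48 hours in 96-well plates. At the GI50, growth is halved. TGI denotes the concentration required for complete inhibition of growth.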
Experiments:
Assay in all cases: NCI-60 cell line screen, 48 h
786-0 renal = tested on: 786-0 renal
HOP-92 NSCLC = tested on: HOP-92 NSCLC
NCI-H23 lung = tested on: NCI-H23 lung
NCI-H522 lung = tested on: NCI-H522 lung
OVCAR-3 ovarian = tested on: OVCAR-3 ovarian
SF-268 CNS = tested on: SF-268 CNS
SK-MEL-2 melanoma = tested on: SK-MEL-2 melanoma
SNB-75 CNS = tested on: SNB-75 CNS
SR leukemia = tested on: SR leukemia
T-47D breast = tested on: T-47D breast

| Compound | GI50 (786-0 renal) | TGI (786-0 renal) | GI50 (HOP-92 NSCLC) | TGI (HOP-92 NSCLC) | GI50 (NCI-H23 lung) | TGI (NCI-H23 lung) [µM] | GI50 (NCI-H522 lung) | TGI (NCI-H522 lung) | GI50 (OVCAR-3 ovarian) | TGI (OVCAR-3 ovarian) | GI50 (SF-268 CNS) | TGI (SF-268 CNS) | GI50 (SK-MEL-2 melanoma) | TGI (SK-MEL-2 melanoma) | GI50 (SNB-75 CNS) | TGI (SNB-75 CNS) | GI50 (SR leukemia) | TGI (SR leukemia) [µM] | GI50 (T-47D breast) | TGI (T-47D breast) |
| --- | --- | --- | --- | --- | --- | --- | --- | --- | --- | --- | --- | --- | --- | --- | --- | --- | --- | --- | --- | --- |
| CCCCCCCCCCC(C(O)c1ccccc1)N1CCCCC1 (configuration not stated) | 1.78 µM | 3.25 µM | 1.82 µM | 3.83 µM | 2.27 µM | 5.97 | 1.94 µM | 3.91 µM | 1.11 µM | 2.57 µM | 1.51 µM | 4.73 µM | 2.25 µM | 4.84 µM | 2.32 µM | 5.65 µM | 2.13 µM | 5.34 | 1.91 µM | 4.35 µM |
| CN(C)CCCN1c2ccccc2C(C)(C)c2ccccc21 |  | 27.7 µM |  | 31.6 µM |  | 30.4 |  | 28.6 µM |  | 28.9 µM |  | 27.2 µM |  | 30.1 µM |  | 24.4 µM |  | 27.1 |  | 38.7 µM |
| Clc1ccc2nnnn2n1 | 3.73 µM | > 100 µM | 4.15 µM | 27 µM | 5.98 µM | 35.4 | 3.01 µM | 11.2 µM | 2.6 µM | 6.66 µM | 3.74 µM | 37.2 µM | 2.88 µM | 20.7 µM | 4.07 µM | > 100 µM | 1.46 µM | 8 | 6.25 µM | 24 µM |
| C=C(C)[C@@H]1CC[C@]2(C)[C@H](CC=C3[C@@H]4[C@@H](C)[C@H](C)CC[C@]4(C(N)=O)CC[C@]32C)[C@@]1(C)CCC#N | 2.26 µM | 5.75 µM | 2.57 µM | 9.05 µM | 5.72 µM | > 100 | 3.56 µM | 50.9 µM | 3.45 µM | 10.7 µM | 4.52 µM | > 100 µM | 6.98 µM | 23.2 µM | 3.57 µM | > 100 µM | 2.58 µM | 9.48 | 2.85 µM | > 100 µM |
| COc1ccc(/C=C(\C#N)n2nnc3ccccc32)cc1 | 0.63 µM | 7.22 µM | 0.272 µM | 3.47 µM | 0.572 µM | 50.4 | 0.0336 µM | > 34.1 µM | 0.046 µM |  | 2.42 µM | > 100 µM | 0.437 µM | 51.1 µM | 0.0327 µM | 0.337 µM | 0.0555 µM | > 39.6 | 0.0865 µM | 72.9 µM |
| O=C1C2C(c3ccccc3)NC(c3ccccc3)C1C(c1ccccc1)NC2c1ccccc1 (configuration not stated) |  | > 100 µM |  | > 100 µM |  | > 100 |  | > 100 µM |  | > 100 µM |  | > 100 µM |  | > 100 µM |  | > 100 µM |  | > 100 |  | > 100 µM |
| C=C1C(=O)O[C@H]2[C@H](OC(C)=O)[C@@H](C)CCC/C(C)=C/CC[C@@]3(C)O[C@@H]3C[C@@H]12 |  | 3.56 µM |  | 5.54 µM |  | 10.8 |  | 3.9 µM |  | 16.2 µM |  | 14 µM |  | 19.5 µM |  | 21.2 µM |  | 6.02 |  | 3.62 µM |
| O=c1oc2cc(N=Cc3ccc4c(c3)OCO4)ccc2c2ccccc12 |  | > 100 µM |  | > 100 µM |  | > 100 |  | > 100 µM |  | > 100 µM |  | > 100 µM |  | > 100 µM |  | 39.7 µM |  | > 100 |  | > 100 µM |
| OC(CNCC1CCCO1)Cn1c2ccc(Cl)cc2c2cc(Cl)ccc21 (configuration not stated) | 1.59 µM | 3.08 µM | 2.15 µM | 6.24 µM | 1.92 µM | 3.61 | 1.89 µM | 3.6 µM | 1.82 µM | 3.28 µM | 1.87 µM | 3.77 µM | 2.29 µM | 4.28 µM | 1.39 µM | 2.87 µM | 2.05 µM | 5.5 | 1.91 µM | 3.89 µM |
| Oc1ccccc1C=Nc1nc(SCc2ccccc2)nc2[nH]ncc12 | 89.4 µM | > 100 µM | 12.4 µM | 71.1 µM | 61.2 µM | > 100 | 50.9 µM | > 100 µM | 64.5 µM | > 100 µM | 28.2 µM | > 100 µM | > 100 µM | > 100 µM | > 100 µM | > 100 µM | 22.5 µM | > 100 | 26.7 µM | 70.2 µM |
| CCN1Cc2c(ccc(F)c2C#N)O[C@@H](C)CNC(=O)c2c(N)nn3ccc1nc23 | 2.85 µM | 15.9 µM | 0.479 µM | 3.65 µM | 2.3 µM | 29.4 | 5.04 µM | 41.3 µM | 3.37 µM | 18.1 µM | 3.26 µM | 20.3 µM | 1.72 µM | 5.22 µM | 0.465 µM | 3.82 µM | 0.626 µM | > 100 | 2.78 µM | 56.3 µM |
| CCN(CC)CCn1c2ccccc2c(=O)c2c(O)ccc(O)c21 |  | 53.8 µM |  | 39.9 µM |  | 62.2 |  | 35.9 µM |  | 47.6 µM |  | 52.7 µM |  | 50.4 µM |  | 49.5 µM |  | 26.2 |  | 34.3 µM |
| COc1cc2c(cc1OCCCCCOc1ccc(-n3c(C)nc4ccccc4c3=O)cc1)N=C[C@@H]1CCCN1C2=O | 0.157 µM | 0.36 µM | 0.394 µM | 7.38 µM | 0.226 µM | 0.528 | 0.204 µM | 0.958 µM | 0.346 µM | 15.5 µM | 0.376 µM |  | 0.377 µM | 1.25 µM | 0.408 µM | 3.43 µM | 0.11 µM | 0.393 | 0.324 µM |  |
| O=C(O)C1C(C(=O)O)C23CC2(C(=O)O)C2(C(=O)O)CCC3=C3CCCC312 (configuration not stated) |  | > 100 µM |  | 36.5 µM |  | 36.4 |  | 16 µM |  | 11.7 µM |  | 22.5 µM |  | 38.8 µM |  | 93.5 µM |  | 6.6 |  | 53.5 µM |
| CC1(O)CC(c2nc(-c3ccc4ccc(-c5ccccc5)nc4c3)c3c(N)nccn23)C1 (configuration not stated) | 15 µM and > 10 µM | 53.7 µM and > 10 µM | 0.0272 µM and 0.0625 µM | 1.15 µM and 1.43 µM | 8.83 µM and 5.03 µM | > 80.8 | 12 µM and > 10 µM | 35.5 µM and > 10 µM | 15 µM and > 10 µM | 34.7 µM and > 10 µM | 12.9 µM and > 10 µM | 55.3 µM and > 10 µM | 10.1 µM and 6.63 µM | 60.6 µM and > 10 µM | 4.62 µM and 5.57 µM | 43.2 µM and > 10 µM | 15.7 µM and 7.92 µM | > 75.2 | 3.94 µM and 2.82 µM | 24.1 µM and > 10 µM |
| COc1ccc(NC(=O)COCCOCCNC[C@@H]2C(=O)O[C@H]3[C@H]2CC/C(COC(=O)OC/C2=C/CC[C@@]4(C)O[C@H]4[C@H]4OC(=O)[C@@H](CN(C)C)[C@@H]4CC2)=C\CC[C@@]2(C)O[C@@H]32)c(O)c1C(N)=O | 6.17 µM | 13.7 µM | 1.71 µM | 6.93 µM | 9.06 µM | 22.1 | 0.888 µM | 1.88 µM | 1.47 µM | 5.26 µM | 8.7 µM | 18.7 µM | 9.69 µM | 20.3 µM | 10.2 µM | > 50 µM | 1.99 µM | 9.28 | 1.71 µM | 10.4 µM |
| O=C1C=CC[C@H](/C=C/c2ccccc2)O1 | 6.28 µM | 24.3 µM | 1.19 µM | 18.3 µM | 2.14 µM | 10.7 | 2.72 µM | > 25.4 µM | 1.94 µM | 7.31 µM | 2.44 µM | 16.6 µM | 6.57 µM | 34.2 µM | 0.394 µM | 4.69 µM | 2.78 µM | > 100 | 6.29 µM | 37.7 µM |
